# Read-outs that look alike come from different tables or passages of the source.
# Columns and labels:
# [1] = test system: first instar yellow fever mosquito larvae; assay: In vitro mosquito larvicide test, first instar; settings: Aedes aegypti, 24 h, lowest concentration with 100% inhibition after 24 hr, microtiter plates; read-out: Minimal Inhibitory Concentration
# From the text: (§1) The A83543 components were active against yellow fever mosquito (Aedes aegypti) larvae in standard in vitro mosquito larvicide tests.
# [2] = test system: fourth instar yellow fever mosquito larvae; assay: whole plant or invertebrate; parameters: species or system Aedes aegypti; settings: 24 hr; for mortality at 0.312 ppm: Aedes aegypti, read-out: Percent Control
# From the text: as §1
# ^a At 24 hr when treated at 0.312 ppm
# [3] = test system: neonate CBW (cotton bollworm) larvae; assay: Percent control of neonate CBW larvae by A83543 components, topical pipet method; type: in vivo, Heliothis zea; settings: for mortality at 0.5 ppm / mortality at 1 ppm / mortality at 5 ppm / mortality at 10 ppm: 24 h, read-out: Percent Control
# Protocol: Each test compound was formulated by dissolving the compound in an acetone/alcohol (1:1) mixture containing 23 g of "Toximul R" (sulfonate/nonionic emulsifier blend) and 13 g of "Toximul S" (sulfonate/nonionic emulsifier blend) per liter. These mixtures were then diluted with water to give the indicated concentrations.
# Additional insects were evaluated using similar formulations and evaluation procedures, with the exceptions noted.
# After standard exposure periods, percent mortality was evaluated. The following abbreviations are used:
# ^1 Treatments with the same letter in parentheses are similar at the
# ^2 Topical pipet method with 20 larve/replicate and 4 replicates; one
# day between treatment and observation.
# adult stable fly (ASF) [4] = assay: Guinea pig systemic test, adult stable fly; type: in vivo, Stomoxys calcitrans
# Protocol: (§2) Adult guinea pigs are used in this test system. The compounds to be tested are dissolved in aqueous polyvinyl pyrrolidone or in polyethylene glycol 200, and an appropriate amount of the solution is administered either orally or by intraperitoneal injection.
# (§3) Blood is drawn from the guinea pigs at 30 minutes except as noted, and the samples of blood are centrifuged. Dental wicks are saturated with the blood serum, and then exposed in Petri dishes to adult stable flies; blow fly larvae are exposed in test tubes. After 24 and 48 hours, the insects are examined, and the number of dead are counted. The results of the tests are recorded as the percent of the insects which are killed.
# blow fly larvae (LBF) [5] = assay: Guinea pig systemic test, blow fly larvae; type: in vivo
# Protocol: as §2, §3
# adult stable fly (ASF) [6] = assay: In vitro efficacy, exposure of ASF to chemically added serum samples; settings: Stomoxys calcitrans, read-out: Percent insect mortality
# From the text: (§4) ^1 Percent insect mortality following 24 to 48 hrs. in vitro exposure
# (§5) to chemically added serum samples
# blow fly larvae (LBF) [7] = assay: In vitro efficacy, exposure of LBF to chemically added serum samples
# From the text: as §4, §5
# CBW (cotton bollworm) = assay: LC50 against CBW, contact; type: in vivo, Heliothis zea; settings: spray concentration
# From the text: (§6) ^a Corn rootworm rate in soil by wt.; all others as spray
# Grain Aphid = assay: LC50 against Grain Aphid; type: in vivo; settings: Sitobion avenae; spray concentration
# From the text: as §6
# Spodoptera eridania = assay: Outdoor pot tests against Southern armyworm; type: in vivo
# From the text: Table XV compares the effectiveness and persistence of A83543A treatment with that of methomyl in outdoor pot tests against Southern armyworm.
# [8] = test system: CRW (Southern corn rootworm); assay: LC50 against CRW; type: in vivo, Diabrotica undecimpunctata howardi; settings: rate in soil by wt.
# From the text: as §6
# [9] = test system: SM (twospotted spider mite); assay: LC50 against SM; type: in vivo; settings: Tetranychus urticae; spray concentration
# From the text: as §6
# SAW (Southern armyworm) = assay: LC50 against SAW, foliar; type: in vivo; settings: Spodoptera eridania, spray concentration
# From the text: as §6
# [10] = 0.5 ppm, topical pipet, one day
structure (smiles),measurement,setting,value
CC[C@H]1CCC[C@H](O[C@H]2CC[C@H](NC)[C@@H](C)O2)[C@@H](C)C(=O)C2=C[C@@H]3[C@@H](C=C[C@@H]4C[C@@H](O[C@@H]5O[C@@H](C)[C@H](OC)[C@@H](OC)[C@H]5OC)C[C@@H]34)[C@@H]2CC(=O)O1 [A83543B],MIC,[1],0.016 mg/L
same,mortality at 0.312 ppm,[2],60%
same,mortality at 0.5 ppm,[3]; [10],35%
same,mortality at 1 ppm,"[3]; 1 ppm, topical pipet, one day",80%
same,mortality at 5 ppm,"[3]; 5 ppm, topical pipet, one day",100%
same,mortality at 10 ppm,"[3]; 10 ppm, topical pipet, one day",100%
CC[C@H]1CCC[C@H](O[C@H]2CC[C@H](N)[C@@H](C)O2)[C@@H](C)C(=O)C2=C[C@@H]3[C@@H](C=C[C@@H]4C[C@@H](O[C@@H]5O[C@@H](C)[C@H](OC)[C@@H](OC)[C@H]5OC)C[C@@H]34)[C@@H]2CC(=O)O1 [A83543C],MIC,[1],0.031 mg/L
same,mortality at 0.312 ppm,[2],60%
same,mortality at 0.5 ppm,[3]; [10],5%
same,mortality at 1 ppm,"[3]; 1 ppm, topical pipet, one day",85%
same,mortality at 5 ppm,"[3]; 5 ppm, topical pipet, one day",93%
same,mortality at 10 ppm,"[3]; 10 ppm, topical pipet, one day",100%
CC[C@H]1CCC[C@H](O[C@H]2CC[C@H](N(C)C)[C@@H](C)O2)[C@@H](C)C(=O)C2=C[C@@H]3[C@@H](C=C(C)[C@@H]4C[C@@H](O[C@@H]5O[C@@H](C)[C@H](OC)[C@@H](OC)[C@H]5OC)C[C@@H]34)[C@@H]2CC(=O)O1 [A83543D],% Activity ASF,"adult stable fly (ASF) [4]; 10 mg/kg IP, bled 30 min",0%
same,% Activity ASF,"adult stable fly (ASF) [4]; 10 mg/kg IP, bled 5 hr",0%
same,% Activity ASF,"adult stable fly (ASF) [4]; 10 mg/kg IP, bled 24 hr",10%
same,% Activity ASF,"adult stable fly (ASF) [4]; 30 mg/kg IP, bled 30 min",0%
same,% Activity ASF,"adult stable fly (ASF) [4]; 30 mg/kg IP, bled 5 hr",0%
same,% Activity ASF,"adult stable fly (ASF) [4]; 30 mg/kg IP, bled 24 hr",0%
same,% Activity ASF,"adult stable fly (ASF) [4]; 50 mg/kg IP, bled 30 min",0%
same,% Activity ASF,"adult stable fly (ASF) [4]; 50 mg/kg IP, bled 5 hr",0%
same,% Activity ASF,"adult stable fly (ASF) [4]; 50 mg/kg IP, bled 24 hr",0%
same,mortality at 0.312 ppm,[2],30%
same,% Activity LBF,"blow fly larvae (LBF) [5]; 10 mg/kg IP, bled 30 min",0%
same,% Activity LBF,"blow fly larvae (LBF) [5]; 10 mg/kg IP, bled 5 hr",0%
same,% Activity LBF,"blow fly larvae (LBF) [5]; 10 mg/kg IP, bled 24 hr",0%
same,% Activity LBF,"blow fly larvae (LBF) [5]; 30 mg/kg IP, bled 30 min",0%
same,% Activity LBF,"blow fly larvae (LBF) [5]; 30 mg/kg IP, bled 5 hr",0%
same,% Activity LBF,"blow fly larvae (LBF) [5]; 30 mg/kg IP, bled 24 hr",0%
same,% Activity LBF,"blow fly larvae (LBF) [5]; 50 mg/kg IP, bled 30 min",75%
same,% Activity LBF,"blow fly larvae (LBF) [5]; 50 mg/kg IP, bled 5 hr",0%
same,% Activity LBF,"blow fly larvae (LBF) [5]; 50 mg/kg IP, bled 24 hr",25%
same,mortality at 0.5 ppm,[3]; topical,58%
same,mortality at 1 ppm,[3]; topical,90%
same,mortality at 5 ppm,[3]; topical,100%
same,mortality at 10 ppm,[3]; topical,100%
same,mortality at 0.312 ppm,adult stable fly (ASF) [6]; 24 hr,0%
same,mortality at 0.312 ppm,adult stable fly (ASF) [6]; 48 hr,0%
same,mortality at 0.625 ppm,adult stable fly (ASF) [6]; 24 hr,0%
same,mortality at 0.625 ppm,adult stable fly (ASF) [6]; 48 hr,60%
same,mortality at 1.25 ppm,adult stable fly (ASF) [6]; 24 hr,10%
same,mortality at 1.25 ppm,adult stable fly (ASF) [6]; 48 hr,90%
same,mortality at 2.5 ppm,adult stable fly (ASF) [6]; 24 hr,20%
same,mortality at 2.5 ppm,adult stable fly (ASF) [6]; 48 hr,100%
same,mortality at 5 ppm,adult stable fly (ASF) [6]; 24 hr,20%
same,mortality at 5 ppm,adult stable fly (ASF) [6]; 48 hr,90%
same,mortality at 10 ppm,adult stable fly (ASF) [6]; 24 hr,50%
same,mortality at 10 ppm,adult stable fly (ASF) [6]; 48 hr,100%
same,Percent insect mortality,"blow fly larvae (LBF) [7]; 0.312 ppm, 24 hr",25%
same,Percent insect mortality,"blow fly larvae (LBF) [7]; 0.312 ppm, 48 hr",25%
same,Percent insect mortality,"blow fly larvae (LBF) [7]; 0.625 ppm, 24 hr",50%
same,Percent insect mortality,"blow fly larvae (LBF) [7]; 0.625 ppm, 48 hr",75%
same,Percent insect mortality,"blow fly larvae (LBF) [7]; 1.25 ppm, 24 hr",80%
same,Percent insect mortality,"blow fly larvae (LBF) [7]; 1.25 ppm, 48 hr",90%
same,Percent insect mortality,"blow fly larvae (LBF) [7]; 2.5 ppm, 24 hr",90%
same,Percent insect mortality,"blow fly larvae (LBF) [7]; 2.5 ppm, 48 hr",100%
same,Percent insect mortality,"blow fly larvae (LBF) [7]; 5 ppm, 24 hr",90%
same,Percent insect mortality,"blow fly larvae (LBF) [7]; 5 ppm, 48 hr",100%
same,Percent insect mortality,"blow fly larvae (LBF) [7]; 10 ppm, 24 hr",100%
same,Percent insect mortality,"blow fly larvae (LBF) [7]; 10 ppm, 48 hr",100%
CO[C@@H]1[C@@H](OC)[C@H](C)O[C@@H](O[C@H]2C[C@H]3[C@@H]4C=C5C(=O)[C@H](C)[C@@H](O[C@H]6CC[C@H](N(C)C)[C@@H](C)O6)CCC[C@H](C)OC(=O)C[C@H]5[C@@H]4C=C[C@@H]3C2)[C@@H]1OC [A83543E],mortality at 0.312 ppm,[2],80%
same,mortality at 0.5 ppm,[3]; topical,28%
same,mortality at 1 ppm,[3]; topical,58%
same,mortality at 5 ppm,[3]; topical,100%
same,mortality at 10 ppm,[3]; topical,100%
CC[C@H]1CCC[C@H](O[C@H]2CC[C@H](N(C)C)[C@@H](C)O2)CC(=O)C2=C[C@@H]3[C@@H](C=C[C@@H]4C[C@@H](O[C@@H]5O[C@@H](C)[C@H](OC)[C@@H](OC)[C@H]5OC)C[C@@H]34)[C@@H]2CC(=O)O1 [A83543F],mortality at 0.312 ppm,[2],0%
same,mortality at 0.5 ppm,[3]; [10],0%
same,mortality at 1 ppm,"[3]; 1 ppm, topical pipet, one day",0%
same,mortality at 5 ppm,"[3]; 5 ppm, topical pipet, one day",0%
same,mortality at 10 ppm,"[3]; 10 ppm, topical pipet, one day",95%
CC[C@H]1CCC[C@H](O[C@H]2CC[C@@H](N(C)C)[C@@H](C)O2)[C@@H](C)C(=O)C2=C[C@@H]3[C@@H](C=C[C@@H]4C[C@@H](O[C@@H]5O[C@@H](C)[C@H](OC)[C@@H](OC)[C@H]5OC)C[C@@H]34)[C@@H]2CC(=O)O1 [A83543G],Percent Control,[2]; 0.312 ppm,0%
same,Percent Control,"[3]; 0.5 ppm, topical pipet, one day, 1440 min",0%
same,Percent Control,"[3]; 1 ppm, topical pipet, one day",0%
same,Percent Control,"[3]; 5 ppm, topical pipet, one day, 1440 min",20%
same,Percent Control,"[3]; 10 ppm, topical pipet, one day, 1440 min",80%
"CNC(=O)ON=C(C)SC [methomyl, reference compound]",LC50,CBW (cotton bollworm),14.5 mg/L
same,LC50,Grain Aphid,5.4 mg/L
same,mortality at 63 ppm,"Spodoptera eridania; 24 h, 1 day after treatment",100%
same,mortality at 125 ppm,"Spodoptera eridania; 24 h, 1 day after treatment",100%
same,mortality at 250 ppm,"Spodoptera eridania; 24 h, 1 day after treatment",100%
same,mortality at 500 ppm,"Spodoptera eridania; 24 h, 1 day after treatment",100%
same,mortality at 63 ppm,"Spodoptera eridania; 120 h, 5 days after treatment",20%
same,mortality at 125 ppm,"Spodoptera eridania; 120 h, 5 days after treatment",35%
same,mortality at 250 ppm,"Spodoptera eridania; 120 h, 5 days after treatment",85%
same,mortality at 500 ppm,"Spodoptera eridania; 120 h, 5 days after treatment",90%
same,mortality at 63 ppm,"Spodoptera eridania; 168 h, 7 days after treatment",15%
same,mortality at 125 ppm,"Spodoptera eridania; 168 h, 7 days after treatment",40%
same,mortality at 250 ppm,"Spodoptera eridania; 168 h, 7 days after treatment",45%
same,mortality at 500 ppm,"Spodoptera eridania; 168 h, 7 days after treatment",85%
same,mortality at 63 ppm,"Spodoptera eridania; 336 h, 14 days after treatment",0%
same,mortality at 125 ppm,"Spodoptera eridania; 336 h, 14 days after treatment",20%
same,mortality at 250 ppm,"Spodoptera eridania; 336 h, 14 days after treatment",40%
same,mortality at 500 ppm,"Spodoptera eridania; 336 h, 14 days after treatment",60%
same,LC50,[8],6 mg/L
same,LC50,[9],71.4 mg/L
same,LC50,SAW (Southern armyworm),11.4 mg/L

# Source: patent US5362634A, “Process for producing A83543 compounds” (DowElanco, priority 1991, dated 1994)
